The text below walks through data of patent publication US11660307B2, “Methods for treating SARS CoV-2 infections” (Gilead Sciences, Inc., priority 2020, dated 2023).

Like-named read-outs stand apart in the source and are kept apart here.

For one series, the system named is SARS-CoV-2. Description: microbe, parasite or virus in culture. It is filed as cell-based. To be noted: Severe acute respiratory syndrome coronavirus 2, 48 h; read-out: SARS-CoV-2 (2-day) EC50.
Series [1] can be described thus: A549 cytotoxicity analysis (CellTiter-Glo). It is filed as cell-based. The conditions noted are these: human. The procedure:
The cytotoxicity of compounds was determined in A549 cells in the following manner. Compounds (200 nL) were spotted onto 384-well Grenier plates prior to seeding 5000 A549 cells/well in a volume of 40 μL culture medium. The plates were incubated at 37° C. for 48 hours with 5% CO2. On day 2, 40 μL of CellTiter-Glo (Promega) was added and mixed 5 times. Plates were read for luminescence on an Envision (PerkinElmer) and the CC50 (compound concentration for reducing 50% of luminescence signal as a measure of cell viability) were calculated using a nonlinear regression model (four parameters).
(In general: In ATP-based viability assays light output follows the ATP content of the culture.)

In another series the test system is 2019-nCoV. The series can be described thus: Intravenous Compound 32 against 2019-nCoV in rhesus monkeys. It is filed as in vivo. The conditions noted are these: 10 mg/kg IV once daily, vs vehicle.
Where [2] appears, read: A549 cells, 48 hours, CellTiter-Glo, read-out: A549 Cytotoxicity (2-day) CC50.

As to `N#C[C@@]1(c2ccc3c(N)ncnn23)O[C@H](CO)[C@@H](O)[C@H]1O`, in the series with SARS-CoV-2, the EC50 – broadly, the concentration that produces a half-maximal response – worked out at 869 ± 289 nM. In addition, in series [1], the CC50 (as a rule, the concentration that lowers cell viability or growth by half) at 48 h was over 50000 nM.
For `CCC(CC)COC(=O)[C@H](C)N[P@@](=O)(OC[C@H]1O[C@@](C#N)(c2ccc3c(N)ncnn23)[C@H](O)[C@@H]1O)Oc1ccccc1`, the EC50 in the series with SARS-CoV-2 stood at 272 ± 75 nM. Moreover, the half-maximal cytotoxic concentration (CC50) at 48 h in series [1] (setting [2]) was found to be 17700 nM.
As to `CCC(CC)COC(=O)[C@H](C)N[P@](=O)(OC[C@H]1O[C@@](C#N)(c2ccc3c(N)ncnn23)[C@H](O)[C@@H]1O)Oc1ccccc1` [Compound 32, (S)-2-ethylbutyl 2-(((S)-(((2R,3S,4R,5R)-5-(4-aminopyrrolo[2,1-f][1,2,4]triazin-7-yl)-5-cyano-3,4-dihydroxytetrahydrofuran-2-yl)methoxy)(phenoxy)phosphoryl)amino)propanoate], in the series with 2019-nCoV, the cumulative clinical scores result is “notably higher in vehicle-treated animals” and the disease symptoms entry is reported as “less pronounced”.
As to `CCC(CC)COC(=O)[C@H](C)N[P@](=O)(OC[C@H]1O[C@@](C#N)(c2ccc3c(N)ncnn23)[C@H](O)[C@@H]1O)Oc1ccccc1` [drawing 141], in the series on SARS-CoV-2, the EC50 was found to be 135 ± 20 nM. Further, the CC50 at 48 h in series [1] (setting [2]) is over 25200 nM.
